# Laboratory results taken from patent EP0539086B1, “Condensed pyrimidine derivatives and their use as angiotensine II antagonists” (AMERICAN HOME PRODUCTS CORPORATION, priority 1991, dated 1993).
# Test system: A II-infused rat
# Experiment: A II-infused rat model (antihypertensive action)
# Type: in vivo
# Conditions: 3 mg/kg id, average, four hours post-administration, anesthetized ganglion-blocked rats with A II infusion
# Procedure: In accordance with their ability to antagonize angiotensin II, the compounds of this invention show antihypertensive action in the following A II-infused rat model. Procedure: Rats are anesthetized with Dial-Urethane (0.60 mL/kg, ip) and the trachea cannulated with PR 240. Either one femoral artery and both femoral veins or the carotid artery and the corresponding jugular vein are cannulated with PE 50. If the jugular vein is cannulated, two cannulas are placed in the one vein. The initial portion of the duodenum (just distal to the stomach) is cannulated with PE 50 via a small midline incision. Arterial pressure and heart rate are measured from the arterial cannula. Ten to 15 min are allowed following surgery for stabilization of arterial pressure. Ganglion blockade is then produced by intravenous administration of mecamylamine at 3 mg/kg (1 mL/kg of a 3 mg/mL solution). Ganglion blockade causes a fall in arterial pressure of about 50 mmHg. Mecamylamine is given every 90 min throughout the remainder of the experiment. An A II infusion is then begun into the other venous cannula at 0.25 µg/kg min (at 9.6 µL/min). The A II infusion returns arterial pressure to or slightly above the control level. Once arterial pressure has stabilized with the A II infusion, baseline values for mean arterial pressure (MAP) and heart rate are taken. […]
structure (smiles),measurement,value
"Cc1nc(C)c2c(n1)N(Cc1ccc(-c3ccccc3-c3nnn[nH]3)cc1)C(=O)C2 [Example 1, 2,4-Dimethyl-5,7-dihydro-7-[[2'-(1H-tetrazol-5-yl)[1,1-bi-phenyl]-4-yl]methyl]-6H-pyrrolo[2,3-d]pyrimidin-6-one]",lowered the A II dependent blood pressure,41%
